In US8415369B2, “Spiroheterocyclic pyrrolidine dione derivatives useful as pesticides” (Syngenta Crop Protection LLC, priority 2007, dated 2013):

Columns and labels:
[1] = tested on: Myzus persicae (green peach aphid); assay: Example B19: comparison with state of the art, Myzus persicae, systemic/feeding activity, curative; format: in vivo; conditions: for Death rate (%) after 6 days (systemic action): pea seedling roots in test solution, curative
[2] = tested on: Tetranychus urticae (two-spotted spider mite); assay: Example B20: comparison with state of the art, Tetranychus urticae, feeding/residual contact activity, preventive; format: in vivo; conditions: for Death rate (%) after 8 days: bean leaf discs, mixed population, preventive
Description: Activity Against Tetranychus urticae (Two-Spotted Spider Mite)
(Mixed Population, Feeding/Residual Contact Activity, Preventive)
Bean leaf discs on agar in 24-well microtiter plates are sprayed with test solutions. […] 8 days later, discs are checked for egg mortality, larval mortality, and adult mortality.

[3] = tested on: Thrips tabaci (onion thrips); assay: Example B18: comparison with state of the art, Thrips tabaci, feeding/residual contact activity, preventive; format: in vivo; conditions: for Death rate (%) after 6 days: sunflower leaf discs, mixed population, preventive
[4] = tested on: Myzus persicae (green peach aphid); assay: Example B16: comparison with state of the art, Myzus persicae, feeding/residual contact activity, preventive; format: in vivo; conditions: for Death rate (%) after 6 days: sunflower leaf discs, mixed population, preventive
[5] = tested on: Diabrotica balteata (corn root worm); assay: Example B17: comparison with state of the art, Diabrotica balteata, larvicide, growth regulation; format: in vivo; conditions: for Inhibition of growth (%) after 5 dsys: artificial diet MTP, L2 larvae
Experimental: After drying, the MTP's are infested with larvae (L2)(6-10 per well). After an incubation period of 5 days, samples are checked for growth regulation.

[6] = tested on: African bean aphid (Aphis craccivora); assay: Example B21: insecticide seed treatment of sugarbeet seeds, reduction of aphids; format: in vivo; conditions: infested after 14 days, counted 7 days after infestation
Experimental: Insecticide Seed Treatment Sugarbeet seeds are treated with test compounds at various rates (mg a.i./seed). The seeds are sown into pots filled with soil. After placing the seeds on the soil surface they are further covered with soil. Before and during the bioassays, the plants are grown under optimal greenhouse conditions. After 14 days, the plants are infested with African bean aphid (Aphis craccivora) by placing one infested pea seedling containing approximately 150 aphids of a population of mixed developmental stages onto each plant. Seven days after infestation, the number of aphids is counted per plant. Each treatment group is replicated 10 times. Each replicate contains 1 plant. In this test, compounds listed in Tables A, B, C, D, E and F above show good activity.

CON1CCC2(CC1)NC(=O)C(c1cc(Br)c(F)cc1C)=C2O [Compound C19, 3-(5-Bromo-4-fluoro-2-methyl-phenyl)-4-hydroxy-8-methoxy-1,8-diaza-spiro[4.5]dec-3-en-2-one]
melting point: 229 to 230 °C

CO[C@H]1CC[C@]2(CC1)NC(=O)C(c1cc(C)ccc1C)=C2OC(=O)C(C)(C)C [Compound I-1-b-20, reference compound]
Death rate (%) after 6 days (systemic action) ([1]; 200 ppm): 0%
Death rate (%) after 8 days ([2]; 12.5 ppm): 0%
Death rate (%) after 8 days ([2]; 50 ppm): 0%
Death rate (%) after 8 days ([2]; 200 ppm): 50%

CO[C@H]1CC[C@]2(CC1)NC(=O)C(c1c(C)cc(C)cc1C)=C2O [Ia-32, reference compound]
Death rate (%) after 6 days ([3]; 12.5 ppm): 25%
Death rate (%) after 6 days ([3]; 50 ppm): 25%
Death rate (%) after 6 days ([3]; 200 ppm): 25%

CON1CCC2(CC1)NC(=O)C(c1cc(-c3ccc(Cl)cc3)ccc1C)=C2O [Compound C6]
Death rate (%) after 6 days ([4]; 12.5 ppm): 25%
Death rate (%) after 6 days ([4]; 50 ppm): 90%
insecticidal action compared with the compound from the state of the art ([4]; vs compound 1-1-a-16 of WO1999/48869, Table B16): substantially better insecticidal action
Inhibition of growth (%) after 5 dsys ([5]; 50 ppm): 50%
Inhibition of growth (%) after 5 dsys ([5]; 200 ppm): 75%
insecticidal action compared with the compound from the state of the art ([5]; vs compound 1-1-a-16 of WO1999/48869, Table B17): substantially better insecticidal action

COC1CCC2(CC1)NC(=O)C(c1cc(-c3ccc(Cl)cc3)ccc1C)=C2O (centres unmarked) [Compound I-1-a-16]
Death rate (%) after 6 days ([4]; 12.5 ppm): 0%
Death rate (%) after 6 days ([4]; 50 ppm): 50%
Inhibition of growth (%) after 5 dsys ([5]; 50 ppm): 0%
Inhibition of growth (%) after 5 dsys ([5]; 200 ppm): 0%

C=CCOC(=O)OC1=C(c2cc(C)ccc2C)C(=O)NC12CCN(OC)CC2 [Compound A5]
Efficacy, % (reduction of aphids compared to untreated control plants) ([6]; 0.03 mg a.i./seed): 37%
Efficacy, % (reduction of aphids compared to untreated control plants) ([6]; 0.1 mg a.i./seed): 97%
Efficacy, % (reduction of aphids compared to untreated control plants) ([6]; 0.3 mg a.i./seed): 99%
Efficacy, % (reduction of aphids compared to untreated control plants) ([6]; 0.6 mg a.i./seed): 100%

CON1CCC2(CC1)NC(=O)C(c1cc(C)ccc1C)=C2O [Compound C1, 3-(2,5-dimethyl-phenyl)-4-hydroxy-8-methoxy-1,8-diaza-spiro[4.5]dec-3-en-2-one]
Efficacy, % (reduction of aphids compared to untreated control plants) ([6]; 0.03 mg a.i./seed): 65%
Efficacy, % (reduction of aphids compared to untreated control plants) ([6]; 0.1 mg a.i./seed): 96%
Efficacy, % (reduction of aphids compared to untreated control plants) ([6]; 0.3 mg a.i./seed): 99%
Efficacy, % (reduction of aphids compared to untreated control plants) ([6]; 0.6 mg a.i./seed): 99%

CON1CCC2(CC1)NC(=O)C(c1c(C)cc(C)cc1C)=C2O [Compound C2]
Death rate (%) after 6 days ([3]; 12.5 ppm): 90%
Death rate (%) after 6 days ([3]; 50 ppm): 100%
Death rate (%) after 6 days ([3]; 200 ppm): 100%
insecticidal action compared with the compound from the state of the art ([3]; vs compound Ia-32 of EP596298, Table B18): substantially better insecticidal action

CON1CCC2(CC1)NC(=O)C(c1cc(C)ccc1C)=C2OC(=O)C(C)(C)C [Compound A9]
Death rate (%) after 6 days (systemic action) ([1]; 50 ppm): 50%
Death rate (%) after 6 days (systemic action) ([1]; 200 ppm): 80%
insecticidal action compared with the compound from the state of the art ([1]; vs compound I-1-b-20 of WO1998/05638, Table B19): substantially better insecticidal action
Death rate (%) after 8 days ([2]; 12.5 ppm): 50%
Death rate (%) after 8 days ([2]; 50 ppm): 80%
Death rate (%) after 8 days ([2]; 200 ppm): 80%
insecticidal action compared with the compound of the state of the art at low application rates ([2]; low application rates (50 and 12.5 ppm), vs compound I-1-b-20 of WO1998/05638): far superior
insecticidal action compared with the compound from the state of the art ([2]; vs compound I-1-b-20 of WO1998/05638, Table B20): substantially better insecticidal action
